In patent publication US6492124B1, “Trance activated signal transduction pathways in osteoclasts” (The Rockefeller University, priority 1999, dated 2002):

Assays:
NF-κB = NF-κB activation measured by IκB-α phosphorylation/degradation in osteoclasts and dendritic cells (Western blot); assay type: cell-based, mouse; details: osteoclasts and dendritic cells, beginning at 10 min of TRANCE, coinciding with peak of IκB-α phosphorylation
Procedure: FIG. 1. […] (A) Mature bone marrow-derived osteoclasts were stimulated for the indicated times with recombinant hCD8-TRANCE (TRANCE; 1 μg/ml). Levels of phosphorylated forms of p44/p42 ERK (p44 ERK^P and p42 ERK^P), IκBα (IκB-α^P) and PKB (PKB^P) in whole cell extracts were determined using phospho-peptide-specific antibodies as indicated in the figure. […] (B) as in (A) except the use of mature bone marrow-derived dendritic cells instead of osteoclasts.
FIG. 2. […] (A) Osteoclasts were serum starved and then pretreated for 90 min with LY294002 (10 μM), Herbimycin A (Herb. A; 10 μM), and PP1 (10 μM) inhibitors which are specific for PI3-kinase, PTKs, and Src-family kinases, respectively, were stimulated for indicated times with TRANCE (1 μg/ml). Levels of phosphorylated p44/p42 ERK, PKB, and IκB-α were determined as described in FIG. 1. Cells pretreated with vehicle (DMSO) were used as a negative control. (B) as in (A) except the use of mature bone marrow-derived dendritic cells.
Primary cells and cell lines. […] In brief, bone marrow cells from tibiae and femur of 4-6 week old mice (C57BL/6, Jackson Laboratories) were cultured overnight in media (α-MEM, 10% FCS) in the presence of CSF-1 (5 ng/ml). […] For experiments described in this study, only adherent cells were used after extensive washing. […] After allowing them adhere for 2 hours to a tissue culture dish, contaminating floater cells were washed away and mature dendritic cells were obtained by overnight culture.
Cell stimulation, cell transfection and in vitro assays. In vitro differentiated mature dendritic cells, macrophages and osteoclasts were washed to remove exogenous growth factors, cultured in media with low serum (0.5% FCS, 6 hours), then stimulated by adding various cytokines in the presence or absence of inhibitors for various times as indicated. After stimulation, the cells were washed in ice-cold PBS, and subjected to Western blot analysis or immunoprecipitation as described below. […]

mature osteoclasts = assay: Osteoclast survival assay (TRAP solution assay); assay type: cell-based, mouse; details: 24 hours; TRANCE 5 μg/ml or CSF-1 10 ng/ml
Procedure: TRAP solution assays were performed and percent survival calculated. The experiment was performed in triplicate and the mean values with positive standard deviations are shown. […] (E) Mature osteoclasts were washed extensively and then cultured for an additional 24 hr in media without (−) or with TRANCE (5 μg/ml; +) in the absence or presence of increasing doses (200 nM and 800 nM) of LY294002. TRAP solution assays were performed and percent survival was as described in Experimental Procedures. The experiment was performed in triplicate and the mean values with positive standard deviations are shown.
Osteoclast survival assays. In vitro differentiated mature osteoclasts were washed 3 times in media then further cultured for 24 hr in media alone (control) or in media with TRANCE (5 μg/ml) or CSF-1 (10 ng/ml) in the presence or absence of LY294002 as indicated.
Specific cell survival (%)=(A405, 24 hr−A405. background)*100/(A405, 0 hr−A405, background)

TNF-related activation-induced cytokine [TRANCE]
total cellular IκB-α (NF-κB): decrease
cytokine-promoted survival in c-Src−/− osteoclasts compared to wild-type (mature osteoclasts): reduced
